According to the CheMixHub viscosity set:
“And” between values parts separate entries of the source, which are not always exact repeats. Identical values can stand only once.

Key:
[1] = xn = mol fraction of the nth substance listed

CCC(=O)c1ccccc1
viscosity
Details | 303.15 K | 313.15 K | 318.15 K
100 kPa | 1.51 mPa·s | – | –
101 kPa | 1.51 mPa·s and 1.515 mPa·s and 1.622 mPa·s | 1.423 mPa·s and 1.449 mPa·s | 1.377 mPa·s

NCc1ccccc1
viscosity [mPa·s]
Details | 303.15 K | 313.15 K | 323.15 K
100 kPa | 1.497 | 1.262 | 1.071
101 kPa | 1.415 | – | –

CCOP(=O)([O-])OCC.CC[N+]1(C)CCOCC1
100 kPa
Details | viscosity [mPa·s]
293.15 K | 12080
298.15 K | 6680
303.15 K | 3786
308.15 K | 2325
313.15 K | 1466
318.15 K | 941.7
323.15 K | 634

C=C(C)C(=O)OCCCC
101 kPa
Details | viscosity [mPa·s]
298.15 K | 0.8768
303.15 K | 0.8077
308.15 K | 0.7483
313.15 K | 0.7012
318.15 K | 0.6639

CC(C)(C)C(=O)O
101 kPa
Details | viscosity [mPa·s]
313.15 K | 2.45
318.15 K | 2.23
323.15 K | 2.06

CCCC[N+]1(C)CCCCC1.N#C[S-]
Details | viscosity [mPa·s]
318.15 K, 101 kPa | 264.5

CC(C)NC(C)C
viscosity
Details | 298.15 K | 303.15 K | 308.15 K
100 kPa | 0.38 mPa·s and 0.382 mPa·s | 0.36 mPa·s and 0.364 mPa·s | 0.35 mPa·s and 0.347 mPa·s
101 kPa | 0.382 mPa·s | 0.364 mPa·s | 0.347 mPa·s and 0.3089 mPa·s

CN1CCNCC1
101 kPa
Details | viscosity [mPa·s]
298.15 K | 1.87
313.15 K | 1.302

CCOC(=O)CC(C)=O
100 kPa
Details | viscosity [mPa·s]
293.15 K | 1.656
298.15 K | 1.51

CCCC[N+]1(C)CCCC1.N#C[C-](C#N)C#N
101 kPa
Details | viscosity [mPa·s]
308.15 K | 20.56
318.15 K | 15.44

OCCO
Details | viscosity
293.15 K, 101.3 kPa | 21.4 mPa·s and 21.62 mPa·s
293.15 K, 101.32 kPa | 19.2 mPa·s
297.85 K, 101 kPa | 17.7 mPa·s
298.15 K, 100 kPa | 17.7 mPa·s and 17.87 mPa·s
298.15 K, 101.3 kPa | 16.1 mPa·s
298.15 K, 101.33 kPa | 15.31 mPa·s
302.85 K, 101 kPa | 14.4 mPa·s
303 K, 101 kPa | 15 mPa·s
303.15 K, 101.33 kPa | 12.24 mPa·s
307.85 K, 101 kPa | 11.92 mPa·s
308.15 K, 100 kPa | 11.07 mPa·s
308.15 K, 101 kPa | 10.97 mPa·s and 12 mPa·s and 11.66 mPa·s
308.15 K, 101.33 kPa | 9.945 mPa·s
312.95 K, 101 kPa | 9.95 mPa·s
313.15 K, 101.3 kPa | 9.53 mPa·s
313.15 K, 101.32 kPa | 8.45 mPa·s
313.15 K, 101.33 kPa | 9.17 mPa·s and 9.535 mPa·s
317.75 K, 101 kPa | 8.44 mPa·s
318.15 K, 100 kPa | 9.59 mPa·s and 7.888 mPa·s and 8.126 mPa·s
318.15 K, 101.3 kPa | 8.08 mPa·s
318.15 K, 101.33 kPa | 7.68 mPa·s
322.75 K, 101 kPa | 7.19 mPa·s
323.15 K, 101.3 kPa | 6.96 mPa·s and 6.91 mPa·s

S=C=S
Details | viscosity
293.15 K, 101 kPa | 0.36 mPa·s and 0.365 mPa·s
298.15 K, 101.33 kPa | 0.4077 mPa·s

CC(=O)[O-].CC[NH2+]CC
101 kPa
Details | viscosity
303.15 K | 13.64 mPa·s and 13.64 mPa·s
308.15 K | 11.83 mPa·s and 11.83 mPa·s
313.15 K | 10.02 mPa·s

C=CCc1ccc(O)c(OC)c1
Details | viscosity [mPa·s]
298.15 K, 101 kPa | 6.93

CC[NH3+].O=[N+]([O-])[O-]
viscosity
Details | 293.15 K | 298 K | 298.15 K | 303.15 K | 308.15 K | 313.15 K | 318.15 K | 323.15 K
100 kPa | 40.61 mPa·s | – | 34.49 mPa·s | 29.65 mPa·s | 25.76 mPa·s | 22.67 mPa·s | 20.12 mPa·s | –
101 kPa | 43.5 mPa·s and 44.9 mPa·s | 37.51 mPa·s | 37.5 mPa·s and 36.5 mPa·s | 31 mPa·s | 26.5 mPa·s | 22.8 mPa·s | 20 mPa·s | 17.6 mPa·s

C=CCN=C=S
viscosity [mPa·s]
Details | 298.15 K | 303.15 K | 313.15 K | 323.15 K
100 kPa | – | – | 0.592 | –
101 kPa | 0.662 | 0.671 | – | 0.526

CC(CC(C)(C)C)CP(=O)([O-])CC(C)CC(C)(C)C.CCCCCCCC[P+](C)(C)C (centres undefined)
101 kPa
Details | viscosity [mPa·s]
298.15 K | 804
303.15 K | 560
308.15 K | 408
313.15 K | 306
318.15 K | 227
323.15 K | 177

CCOC(=O)CCBr
Details | viscosity [mPa·s]
303.15 K, 101 kPa | 1.867

CCCCCCCCCCCO
101.33 kPa
Details | viscosity [mPa·s]
293.15 K | 16.95
298.15 K | 13.83

CCCCCCn1cc[n+](C)c1.[Cl-]
101 kPa
Details | viscosity
293.15 K | 11420 mPa·s
303.15 K | 4206 mPa·s
313.15 K | 1718 mPa·s
323.15 K | 1879 mPa·s and 783.4 mPa·s

CCC(=O)c1ccccc1 + CCOCCO
viscosity [mPa·s], [1], 101 kPa
Details | x1 = 0.0756 | x1 = 0.1554 | x1 = 0.2397 | x1 = 0.3291 | x1 = 0.4239 | x1 = 0.5246 | x1 = 0.6319 | x1 = 0.7464 | x1 = 0.8688
303.15 K | 1.562 | 1.555 | 1.547 | 1.54 | 1.532 | 1.526 | 1.522 | 1.517 | 1.515
308.15 K | 1.466 | 1.464 | 1.462 | 1.461 | 1.461 | 1.461 | 1.462 | 1.464 | 1.466
313.15 K | 1.366 | 1.369 | 1.372 | 1.376 | 1.381 | 1.387 | 1.394 | 1.401 | 1.41
318.15 K | 1.279 | 1.285 | 1.291 | 1.3 | 1.309 | 1.32 | 1.331 | 1.343 | 1.357

OCCO + CO
[1]
Details | viscosity [mPa·s]
293.15 K, 101.33 kPa, x1 = 0.0476 | 0.724
293.15 K, 101.33 kPa, x1 = 0.0598 | 0.766
293.15 K, 101.33 kPa, x1 = 0.0918 | 0.914
293.15 K, 101.33 kPa, x1 = 0.1023 | 0.918
293.15 K, 101.33 kPa, x1 = 0.1742 | 1.243
293.15 K, 101.33 kPa, x1 = 0.2098 | 1.409
293.15 K, 101.33 kPa, x1 = 0.3191 | 2.142
293.15 K, 101.33 kPa, x1 = 0.3538 | 2.413
293.15 K, 101.33 kPa, x1 = 0.4072 | 2.906
293.15 K, 101.33 kPa, x1 = 0.4225 | 3.085
293.15 K, 101.33 kPa, x1 = 0.4474 | 3.338
293.15 K, 101.33 kPa, x1 = 0.4889 | 3.824
293.15 K, 101.33 kPa, x1 = 0.5955 | 5.485
293.15 K, 101.33 kPa, x1 = 0.6932 | 7.481
293.15 K, 101.33 kPa, x1 = 0.836 | 11.43
293.15 K, 101.33 kPa, x1 = 0.859 | 12.3
298.15 K, 101 kPa, x1 = 0.1 | 0.8363
298.15 K, 101 kPa, x1 = 0.2 | 1.245
298.15 K, 101 kPa, x1 = 0.2969 | 1.998
298.15 K, 101 kPa, x1 = 0.3 | 1.795
298.15 K, 101 kPa, x1 = 0.34 | 2.045
298.15 K, 101 kPa, x1 = 0.4 | 2.562
298.15 K, 101 kPa, x1 = 0.5 | 3.602
298.15 K, 101 kPa, x1 = 0.6 | 5.022
298.15 K, 101 kPa, x1 = 0.7 | 6.964
298.15 K, 101 kPa, x1 = 0.8 | 9.561
298.15 K, 101 kPa, x1 = 0.9 | 13.09
308.15 K, 101 kPa, x1 = 0.1 | 0.7007
308.15 K, 101 kPa, x1 = 0.2 | 1.011
308.15 K, 101 kPa, x1 = 0.2969 | 1.634
308.15 K, 101 kPa, x1 = 0.3 | 1.442
308.15 K, 101 kPa, x1 = 0.4 | 2.032
308.15 K, 101 kPa, x1 = 0.5 | 2.818
308.15 K, 101 kPa, x1 = 0.6 | 3.883
308.15 K, 101 kPa, x1 = 0.7 | 5.269
308.15 K, 101 kPa, x1 = 0.8 | 6.952
308.15 K, 101 kPa, x1 = 0.9 | 9.251
318.15 K, 101 kPa, x1 = 0.1 | 0.6194
318.15 K, 101 kPa, x1 = 0.2 | 0.8557
318.15 K, 101 kPa, x1 = 0.2969 | 1.36
318.15 K, 101 kPa, x1 = 0.3 | 1.172
318.15 K, 101 kPa, x1 = 0.4 | 1.59
318.15 K, 101 kPa, x1 = 0.5 | 2.134
318.15 K, 101 kPa, x1 = 0.6 | 2.844
318.15 K, 101 kPa, x1 = 0.7 | 3.783
318.15 K, 101 kPa, x1 = 0.8 | 4.96
318.15 K, 101 kPa, x1 = 0.9 | 6.432
